In US20110082130A1 (LIGAND PHARMACEUTICALS, INC., priority 2006, published 2011):

What follows are compounds tested against T1, chimeric human H3 receptor (Homo sapiens, UniProt Q9Y5N1) (assay: Chimeric human H3 receptor GTP binding assay (agonist-stimulated GTP-gamma35S binding, Example 7)). Conditions: Table I; P2 membranes of Sf9 cells, 1 μM histamine as agonist, Ki from IC50 by Cheng-Prusoff.
T1 construct: made in house; host or cells: Sf9 insect cells (baculovirus); P2 membrane preparation
Type: biochemical
From the text: This Example illustrates a representative assay for evaluating agonist-stimulated GTP-gamma^35S binding (“GTP binding”) activity. […] This agonist-stimulated GTP binding activity can also be used to detect partial agonism mediated by antagonist compounds. A compound analyzed in this assay is referred to herein as a “test compound.”
Four independent baculoviral stocks (one directing the expression of the chimeric human H3 receptor and three directing the expression of each of the three subunits of a heterotrimeric G-protein) are used to infect a culture of Sf9 cells as described above. P2 membranes are prepared as described above, and agonist-stimulated GTP binding on the P2 membranes is assessed using histamine (Sigma Chemical Co., St. Louis, Mo.) as agonist in order to ascertain that the receptor/G-protein-alpha-beta-gamma combination(s) yield a functional response as measured by GTP binding. P2 membranes are resuspended by Dounce homogenization (tight pestle) in GTP binding assay buffer (50 mM Tris pH 7.4, 120 mM NaCl, 5 mM MgCl2, 2 mM EGTA, 1 mg/ml BSA, 0.2 mg/ml bacitracin, 0.02 mg/ml aprotinin, 0.01 mg/ml saponin, 10 μM GDP) and added to assay tubes at a concentration of 35 μg protein/reaction tube. After adding increasing doses of histamine at concentrations ranging from 10^−12 M to 10^−5 M, reactions are initiated by the addition of […] GTP-gamma^35S (PERKIN ELMER; Boston, Mass.) with a final assay volume of 0.20 ml. In competition experiments, non-radiolabeled test compounds are added to separate reactions at concentrations ranging from 10^−10 M to 10^−6 M along with 1 μM histamine to yield a final volume of 0.20 ml.
Neutral antagonists are antagonists that are substantially free of inherent agonist activity, and include those test compounds that reduce the histamine-stimulated GTP binding activity towards, but not below, baseline levels. In contrast, in the absence of added histamine, inverse agonists reduce the GTP binding activity of the receptor-containing membranes below baseline.
After a 60-min incubation at room temperature, reactions are terminated by vacuum filtration over WHATMAN GF/C filters (pre-soaked in wash buffer, 0.1% BSA) followed by washing with ice-cold wash buffer (50 mM Tris pH 7.4, 120 mM NaCl). The amount of receptor-bound (and thereby membrane-bound) GTP-gamma^35S is determined by measuring the filter-bound radioactivity, preferably by liquid scintillation spectrometry of the washed filters. Non-specific binding is determined in parallel assays including 10 μM unlabeled GTP-gammaS and typically represents less than 5 percent of total binding. Data is expressed as percent above basal (baseline). The results of GTP binding experiments are analyzed using SIGMAPLOT software (SPSS Inc., Chicago, Ill.). IC50 values are calculated by non-linear regression analysis of dose-response curves using Kaleidograph (Synergy Software, Reading, Pa.).
Alternatively the data is analyzed as follows. First, the average bound radioactivity from negative control wells (no agonist) is subtracted from the bound radioactivity detected for each of the other experimental wells. Second, average bound radioactivity is calculated for the positive control wells (agonist wells). Then, percent inhibition for each compound tested is calculated using the equation:
Calculated IC50 values are converted to K1 values by the Cheng-Prusoff correction (Cheng and Prusoff (1973) Biochem. Pharmacol. 22(23):3099-3108). Accordingly, the following equation: Ki=IC50/(1+[L]/EC50) is used, where [L] is the histamine concentration in the GTP binding assay, and EC50 is the concentration of histamine producing a 50% response, as determined by a dose-response analysis using concentrations of histamine ranging from 10^−10 M to 10^−6M. […]

T1 sequence (Q9Y5N1 with tags, fused parts or gaps): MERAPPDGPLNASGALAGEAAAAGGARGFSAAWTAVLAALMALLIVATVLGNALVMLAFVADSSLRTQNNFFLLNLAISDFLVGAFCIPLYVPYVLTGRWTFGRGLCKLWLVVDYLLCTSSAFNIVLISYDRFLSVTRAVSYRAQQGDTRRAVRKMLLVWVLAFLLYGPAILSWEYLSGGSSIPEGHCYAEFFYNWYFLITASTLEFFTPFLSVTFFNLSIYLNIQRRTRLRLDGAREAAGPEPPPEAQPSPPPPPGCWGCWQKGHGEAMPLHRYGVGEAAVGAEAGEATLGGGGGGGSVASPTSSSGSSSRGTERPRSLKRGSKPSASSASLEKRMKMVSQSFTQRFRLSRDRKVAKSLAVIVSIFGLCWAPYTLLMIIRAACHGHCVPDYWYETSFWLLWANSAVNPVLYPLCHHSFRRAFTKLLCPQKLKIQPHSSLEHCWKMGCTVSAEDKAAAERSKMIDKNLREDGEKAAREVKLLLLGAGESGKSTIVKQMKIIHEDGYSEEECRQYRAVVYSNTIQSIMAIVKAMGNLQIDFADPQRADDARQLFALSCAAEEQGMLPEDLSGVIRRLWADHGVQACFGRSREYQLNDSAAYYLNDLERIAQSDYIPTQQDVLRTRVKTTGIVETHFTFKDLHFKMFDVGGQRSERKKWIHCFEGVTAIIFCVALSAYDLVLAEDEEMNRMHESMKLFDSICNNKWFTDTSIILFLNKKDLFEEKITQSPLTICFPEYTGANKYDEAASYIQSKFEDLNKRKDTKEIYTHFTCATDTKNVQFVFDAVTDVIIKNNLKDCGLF

Ki, < 1000 nM:
COc1ccc(-c2ncc3c(n2)CCN(CC(=O)N2CCN(C4CCC4)CC2)C3)cc1 [Compound 76, 6-[2-(4-cyclobutylpiperazin-1-yl)-2-oxoethyl]-2-(4-methoxyphenyl)-5,6,7,8-tetrahydropyrido[4,3-d]pyrimidine]
CC(=O)c1ccc(-c2ncnc3c2CCN(CC(=O)N2CCN(C4CCC4)CC2)CC3)cc1 [Compound 79, 1-(4-{7-[2-(4-cyclobutylpiperazin-1-yl)-2-oxoethyl]-6,7,8,9-tetrahydro-5H-pyrimido[4,5-d]azepin-4-yl}phenyl)ethanone]

Same assay, conditions: Table II "Ki", symbol *; assay of Example 7

Ki, < 1000 nM:
COCCC1CCN(c2ccc3c(n2)CCN(CC(=O)N2CCN(C4CCC4)CC2)C3)CC1 [Compound 672, 6-[2-(4-cyclobutylpiperazin-1-yl)-2-oxoethyl]-2-[4-(2-methoxyethyl)piperidin-1-yl]-5,6,7,8-tetrahydro-1,6-naphthyridine]
COc1cc(-c2ccc3c(c2)CCN(CC(=O)N2CCN(C4CCCC4)CC2)C3)cc(OC)c1OC [Compound 517, 2-[2-(4-cyclopentylpiperazin-1-yl)-2-oxoethyl]-6-(3,4,5-trimethoxyphenyl)-1,2,3,4-tetrahydroisoquinoline]
O=C(CN1CCc2nc(NC3CCCCC3)ccc2C1)N1CCN(C2CCC2)CC1 [Compound 658, 6-[2-(4-cyclobutylpiperazin-1-yl)-2-oxoethyl]-N-cyclohexyl-5,6,7,8-tetrahydro-1,6-naphthyridin-2-amine]
CCC(CC)Nc1ccc2c(n1)CCN(CC(=O)N1CCN(C3CCC3)CC1)C2 [Compound 662, 6-[2-(4-cyclobutylpiperazin-1-yl)-2-oxoethyl]-N-(1-ethylpropyl)-5,6,7,8-tetrahydro-1,6-naphthyridin-2-amine]
N#Cc1ccccc1-c1ccc2c(c1)CCN(CC(=O)N1CCN(C3CCC3)CC1)C2 [Compound 627, 2-{2-[2-(4-cyclobutylpiperazin-1-yl)-2-oxoethyl]-1,2,3,4-tetrahydroisoquinolin-6-yl}benzonitrile]
CN(C)Cc1cccc(-c2ccc3c(c2)CCN(CC(=O)N2CCN(C4CCC4)CC2)C3)c1 [Compound 641, 1-(3-{2-[2-(4-cyclobutylpiperazin-1-yl)-2-oxoethyl]-1,2,3,4-tetrahydroisoquinolin-6-yl}phenyl)-N,N-dimethylmethanamine]

Same assay, conditions: Table II; "*" = Ki in assay of Example 7 less than 1 micromolar

Ki, < 1000 nM:
C[C@H]1CCCN1c1ccc2c(n1)CCN(CC(=O)N1CCN(C3CCC3)CC1)C2 (stereo in doubt) [Compound 223, 6-[2-(4-cyclobutylpiperazin-1-yl)-2-oxoethyl]-2-(2-methylpyrrolidin-1-yl)-5,6,7,8-tetrahydro-1,6-naphthyridine]
Cc1c2c(nn1-c1ccc(C#N)cn1)CCN(CC(=O)N1CCN(C3CCC3)CC1)C2 [Compound 274, 6-{5-[2-(4-cyclobutylpiperazin-1-yl)-2-oxoethyl]-3-methyl-4,5,6,7-tetrahydro-2H-pyrazolo[4,3-c]pyridin-2-yl}nicotinonitrile]
CC1CCCC2CN(C(=O)CN3CCc4cc(-c5cccnn5)ccc4C3)CCN12 (stereo not shown) [Compound 165, 6-methyl-2-[(6-pyridazin-3-yl-3,4-dihydroisoquinolin-2(1H)-yl)acetyl]octahydro-2H-pyrido[1,2-a]pyrazine]
O=C(NC1CCC1)c1ccc2c(n1)CCN(CC(=O)N1CCN(C3CCC3)CC1)C2 [Compound 125, N-cyclobutyl-6-[2-(4-cyclobutylpiperazin-1-yl)-2-oxoethyl]-5,6,7,8-tetrahydro-1,6-naphthyridine-2-carboxamide]
CC1CN(C(=O)CN2CCc3nc(-c4cscn4)sc3C2)CCN1C1CCC1 (stereo not shown) [Compound 113, 5-[2-(4-cyclobutyl-3-methylpiperazin-1-yl)-2-oxoethyl]-2-(1,3-thiazol-4-yl)-4,5,6,7-tetrahydro[1,3]thiazolo [5,4-c]pyridine]

Same assay, conditions: Table II; assay of Example 7

Ki, < 1000 nM:
NC(=O)C1CCN(c2ncc3c(n2)CCN(CC(=O)N2CCN(C4CCC4)CC2)C3)CC1 [Compound 691, 1-{6-[2-(4-cyclobutylpiperazin-1-yl)-2-oxoethyl]-5,6,7,8-tetrahydropyrido[4,3-d]pyrimidin-2-yl}piperidine-4-carboxamide]

Same assay, conditions: assay of Example 7; "*" in Ki of Table II

Ki, < 1000 nM:
COc1ccccc1-c1nc2c(s1)CN(CC(=O)N1CCN(C3CCC3)CC1)CC2 [Compound 336, 5-[2-(4-cyclobutylpiperazin-1-yl)-2-oxoethyl]-2-(2-methoxyphenyl)-4,5,6,7-tetrahydro[1,3]thiazolo [5,4-c]pyridine]
O=C(CN1CCc2nc(-c3ccc(Cl)cc3)sc2C1)N1CCN(C2CCC2)CC1 [Compound 296, 2-(4-chlorophenyl)-5-[2-(4-cyclobutylpiperazin-1-yl)-2-oxoethyl]-4,5,6,7-tetrahydro[1,3]thiazolo [5,4-c]pyridine]
Cc1cnc(-n2cc3c(n2)CCN(CC(=O)N2CCN(C4CCC4)CC2)C3)nc1 [Compound 289, 5-[2-(4-cyclobutylpiperazin-1-yl)-2-oxoethyl]-2-(5-methylpyrimidin-2-yl)-4,5,6,7-tetrahydro-2H-pyrazolo[4,3-c]pyridine]
O=C(CN1CCc2nc(-c3ccc(Cl)c(Cl)c3)sc2C1)N1CCN(C2CCC2)CC1 [Compound 354, 5-[2-(4-cyclobutylpiperazin-1-yl)-2-oxoethyl]-2-(3,4-dichlorophenyl)-4,5,6,7-tetrahydro[1,3]thiazolo [5,4-c]pyridine]
CS(=O)(=O)c1ccc(-c2ccc3c(c2)CCN(CC(=O)N2CCN(C4CCC4)CC2)C3)cc1 [Compound 389, 2-[2-(4-cyclobutylpiperazin-1-yl)-2-oxoethyl]-6-[4-(methylsulfonyl)phenyl]-1,2,3,4-tetrahydroisoquinoline]
CCOC(=O)c1cccc(-c2nc3c(s2)CN(CC(=O)N2CCN(C4CCC4)CC2)CC3)c1 [Compound 376, ethyl 3-{5-[2-(4-cyclobutylpiperazin-1-yl)-2-oxoethyl]-4,5,6,7-tetrahydro[1,3]thiazolo [5,4-c]pyridin-2-yl}benzoate]
COc1ccc2cc(-c3nc4c(s3)CN(CC(=O)N3CCN(C5CCC5)CC3)CC4)ccc2c1 [Compound 324, 5-[2-(4-cyclobutylpiperazin-1-yl)-2-oxoethyl]-2-(6-methoxy-2-naphthyl)-4,5,6,7-tetrahydro[1,3]thiazolo [5,4-c]pyridine]
CCC(C)N1CCN(C(=O)CN2CCc3cc(-c4ccc(S(C)(=O)=O)cc4)ccc3C2)CC1 (stereo not shown) [Compound 396, 2-[2-(4-sec-butylpiperazin-1-yl)-2-oxoethyl]-6-[4-(methylsulfonyl)phenyl]-1,2,3,4-tetrahydroisoquinoline]
O=C(CN1CCc2nc(-c3c(F)cccc3F)sc2C1)N1CCN(C2CCC2)CC1 [Compound 353, 5-[2-(4-cyclobutylpiperazin-1-yl)-2-oxoethyl]-2-(2,6-difluorophenyl)-4,5,6,7-tetrahydro[1,3]thiazolo [5,4-c]pyridine]
COc1ccc(-c2ccc3c(c2)CCN(CC(=O)N2CCN(C(C)C)CC2)C3)cn1 [Compound 386, 2-[2-(4-isopropylpiperazin-1-yl)-2-oxoethyl]-6-(6-methoxypyridin-3-yl)-1,2,3,4-tetrahydroisoquinoline]
COc1ccc(OC)c(-c2nc3c(s2)CN(CC(=O)N2CCN(C4CCC4)CC2)CC3)c1 [Compound 339, 5-[2-(4-cyclobutylpiperazin-1-yl)-2-oxoethyl]-2-(2,5-dimethoxyphenyl)-4,5,6,7-tetrahydro[1,3]thiazolo [5,4-c]pyridine]
